Laboratory results published in patent US11661410B2 (GLOBAL BLOOD THERAPEUTICS, INC., priority 2017, dated 2023).

What follows are compounds tested against muscarinic M2 receptor (Homo sapiens (Human), UniProt P08172) (assay: Safety pharmacological profiling: muscarinic M2 receptor ligand binding). Settings: compound at 10 μM, in duplicate; ligand binding to cell membranes; read-out: Muscarinic M2 percent inhibition.
muscarinic M2 receptor, sequence (P08172 whole entry): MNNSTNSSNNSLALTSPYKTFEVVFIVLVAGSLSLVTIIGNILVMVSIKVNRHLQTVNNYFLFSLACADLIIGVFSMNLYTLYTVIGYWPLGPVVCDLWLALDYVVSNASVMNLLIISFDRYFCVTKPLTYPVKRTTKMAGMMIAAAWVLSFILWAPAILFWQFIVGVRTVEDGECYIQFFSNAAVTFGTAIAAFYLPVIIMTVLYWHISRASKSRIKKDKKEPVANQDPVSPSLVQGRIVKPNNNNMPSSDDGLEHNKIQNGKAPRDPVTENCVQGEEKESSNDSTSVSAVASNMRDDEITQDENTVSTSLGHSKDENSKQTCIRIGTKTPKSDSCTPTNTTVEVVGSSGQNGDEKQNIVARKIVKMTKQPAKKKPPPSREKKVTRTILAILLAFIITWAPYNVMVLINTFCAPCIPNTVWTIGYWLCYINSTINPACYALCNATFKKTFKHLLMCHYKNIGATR

SMILES	inhibition at 10 µM [%]
COc1cc2nc3c(c(NCC4CNC4)c2cc1OC)CCC3 [drawing 585]	65
COc1cc2nc3c(c(N[C@@H]4CCCNC4)c2cc1OC)CCC3 [drawing 586]	76
COc1cc2nc3c(c(NC4CCNCC4)c2cc1OC)CCC3 [drawing 587]	62
COc1cc2nc3c(c(N[C@H]4CNC[C@@H](C)C4)c2cc1OC)CCC3 [drawing 588]	75
COc1cc2nc3c(c(N[C@@H]4CCCCNC4)c2cc1OC)CCC3 [drawing 589]	80

What follows are compounds tested against mu (μ) opiate (OP3) receptor (Homo sapiens (Human), UniProt P35372) (assay: biochemical). Settings: read-out: Mu Opiate percent inhibition.
Format: binding

SMILES	inhibition at 10 µM [%]
COc1cc2c(NC(C)C)c3c(nc2cc1OCCCN1CCCC1)CCC3 [drawing 590]	92
CCNc1c2c(nc3cc(OCCCN4CCCC4)c(OC)cc13)CCC2 [drawing 591]	92
COc1cc2nc3c(c(NCC4CNC4)c2cc1OC)CCC3 [drawing 593]	12
COc1cc2nc3c(c(N[C@@H]4CCCNC4)c2cc1OC)CCC3 [drawing 594]	44
COc1cc2nc3c(c(NC4CCNCC4)c2cc1OC)CCC3 [drawing 595]	48
COc1cc2nc3c(c(N[C@H]4CNC[C@@H](C)C4)c2cc1OC)CCC3 [drawing 596]	23
COc1cc2nc3c(c(N[C@@H]4CCCCNC4)c2cc1OC)CCC3 [drawing 597]	73
